Data from PubChem BioAssay AID602284 (Broad Institute, 2012).
Activity calls are given as the source filed them.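 How the source made its calls: active means every test run fits a half-maximal inhibitory dose no higher than twice its top dose tested; inconclusive means runs disagree, flat partial inhibition, or poor curve fit; inactive means the rest.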

Molecular target: Cyclin-dependent kinase 5 activator 1 (Homo sapiens) + Cyclin-dependent kinase 5 (Homo sapiens) (UniProt Q15078+Q00535)
Assay: inhibition of CDK5-p35 phosphorylation activity – biochemical, ADP-Glo luminescence, dry powder samples, dose response (AID 602284)
Conditions: histone H1 peptide

Sequence of Cyclin-dependent kinase 5 activator 1 (Homo sapiens) + Cyclin-dependent kinase 5 (Homo sapiens) (Q00535 whole entry, looked up): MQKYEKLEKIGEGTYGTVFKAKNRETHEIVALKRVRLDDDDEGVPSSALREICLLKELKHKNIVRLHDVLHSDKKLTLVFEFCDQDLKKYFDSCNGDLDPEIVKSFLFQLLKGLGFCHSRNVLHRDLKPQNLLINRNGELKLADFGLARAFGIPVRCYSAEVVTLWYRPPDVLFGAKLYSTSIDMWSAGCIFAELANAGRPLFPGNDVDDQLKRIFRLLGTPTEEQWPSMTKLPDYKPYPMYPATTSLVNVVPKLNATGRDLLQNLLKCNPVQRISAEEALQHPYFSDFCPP
Sequence of Cyclin-dependent kinase 5 activator 1 (Homo sapiens) + Cyclin-dependent kinase 5 (Homo sapiens) (Q15078 whole entry, looked up): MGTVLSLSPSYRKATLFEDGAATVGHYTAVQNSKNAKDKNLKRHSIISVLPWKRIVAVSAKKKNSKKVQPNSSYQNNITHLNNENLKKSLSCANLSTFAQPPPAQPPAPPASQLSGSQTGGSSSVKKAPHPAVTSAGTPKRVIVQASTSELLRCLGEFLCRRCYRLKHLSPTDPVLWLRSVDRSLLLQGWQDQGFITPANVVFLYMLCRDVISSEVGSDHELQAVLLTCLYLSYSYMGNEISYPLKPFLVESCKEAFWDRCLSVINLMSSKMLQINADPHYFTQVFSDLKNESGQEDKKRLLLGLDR

Compound | activity change, negative = inhibition (at 30 µM (top of the series)) | further results
CCCn1c(NC(=O)c2ccc(OC)c(S(=O)(=O)N3CCCC3)c2)nc2ccccc21 | inactive | 
Cc1ccc(N2CCN(C(=O)c3ccc(Cl)cc3)CC2)nc1 | inactive | 
CCOc1cc(C(=O)N2CCN(c3ccccn3)CC2)cc(OCC)c1OCC | inactive | 
O=C(c1ccc(Cl)cc1)N1CCN(c2ccc(C(F)(F)F)cn2)CC1 | inactive | 
CCn1c(NC(=O)c2cccc(S(=O)(=O)NC)c2)nc2ccccc21 |  | AC50: 29.1 µM
CC(C)(C)n1c(NC(=O)c2cccc(S(C)(=O)=O)c2)nc2ccccc21 |  | AC50: 12.3 µM
CCCn1c(NC(=O)c2cccc(S(=O)(=O)N(CC)CC)c2)nc2ccccc21 |  | AC50: 2.95 µM
CCCn1c(NC(=O)c2cccc(S(=O)(=O)N(C)C)c2)nc2ccccc21 |  | AC50: 10.2 µM
O=C(C1CCCCC1)N1CCN(c2ccccn2)CC1 | inactive | 
COc1cc(C(=O)N2CCN(c3ccccc3)CC2)cc(OC)c1OC | inactive | 
CCCn1c(NC(=O)c2ccc(Cl)c(S(=O)(=O)N3CCCC3)c2)nc2ccccc21 | inactive | 
c1ccc(N2CCNCC2)nc1 |  | activity change, negative = inhibition (at 0.38 µM (top of the series)): inactive
O=C(c1ccc(Cl)cc1)N1CCN(c2ncccc2C(F)(F)F)CC1 | inactive | 
N#Cc1cccnc1N1CCN(C(=O)c2ccc(Cl)cc2)CC1 | inactive | 
N#Cc1ccc(N2CCN(C(=O)c3ccc(Cl)cc3)CC2)nc1 | inactive | 
CCCn1c(NC(=O)c2cccc(S(=O)(=O)N3CCCCC3)c2)nc2ccccc21 |  | AC50: 13.5 µM
COc1cc(C(=O)N2CCN(c3ccccn3)CC2)cc(OC)c1OC | inactive | 
O=C(c1ccc(Cl)cc1)N1CCN(c2cccc(C(F)(F)F)n2)CC1 | inactive | 
O=C(c1ccccc1)N1CCN(c2ccccn2)CC1 |  | activity change, negative = inhibition (at 10 µM (top of the series)): inactive
COc1cccnc1N1CCN(C(=O)c2ccc(Cl)cc2)CC1 | inactive | 

Now from value to molecule, other results behind:

activity change, negative = inhibition (at 30 µM (top of the series)) | Compound | further results
inactive | COc1ccnc(N2CCN(C(=O)c3ccc(Cl)cc3)CC2)c1 | 
inactive | Cc1ccc(C(=O)N2CCN(c3ccccn3)CC2)cc1 | 
inactive | O=C(c1ccccc1Cl)N1CCN(c2ccccn2)CC1 | 
inactive | N#Cc1ccc(C(=O)N2CCN(c3ccccn3)CC2)cc1 | 
inactive | COCCC(=O)N1CCN(c2ccccn2)CC1 | 
inactive | COc1ccc(C(=O)N2CCN(c3ccccn3)CC2)cc1 | 
inactive | COc1cccc(C(=O)N2CCN(c3ccccn3)CC2)c1 | 
inactive | O=C(c1cccc(Cl)c1)N1CCN(c2ccccn2)CC1 | 
inactive | Cc1ccnc(N2CCN(C(=O)c3ccc(Cl)cc3)CC2)c1 | 
inactive | CCCCC(=O)N1CCN(c2ccccn2)CC1 | 
inactive | O=C(c1ccc(Cl)cc1)N1CCN(c2ccccn2)CC1 | 
inactive | CC(C)C(=O)N1CCN(c2ccccn2)CC1 | 
inactive | O=C(c1ccc(F)cc1)N1CCN(c2ccccn2)CC1 | 
inactive | Cc1cccc(N2CCN(C(=O)c3ccc(Cl)cc3)CC2)n1 | 
